The nature of series [1]: Chemical stability of tretinoin in an admixture with benzoyl peroxide at room condition and 32° C., under room light. The class given is physicochemical. The note with it: for Assay (% label claim), 32° C., Room Light / Assay (% label claim), Room Condition: tretinoin in admixture with benzoyl peroxide. Here is the method: The chemical stability of tretinoin in an admixture with benzoyl peroxide of the present invention at room temperature and 32 degrees C., under room light condition is shown in Table 1.
More than 97 and 96 percent of treinoin in the original admixture of the present invention remains after 24 hours at room condition and 32° C., under room light, respectively. Such stability ensures that the therapeutic efficacy of tretinoin is not diminished between once-a-day applications.

The conditions of series [2]: equal parts of 0.05% tretinoin gel and gel containing 5% BPO and clindamycin phosphate; 32° C. for 7 hours; cited from earlier work.
Setting [3] is: time 0 hr, replicates top/middle/bottom.

Molecules are shown by their SMILES. Values joined by “and” are separate entries in the source; they are usually repeats but may differ in a detail not shown here. Equal values may be shown once.

As to `CC1=C(/C=C/C(C)=C/C=C/C(C)=C/C(=O)O)C(C)(C)CCC1` [Tretinoin, tretinoin], in series [1] (admixture of tretinoin and benzoyl peroxide compositions, even at 32° C. under room light condition), the “time for which tretinoin in the admixture is chemically stable” value was “at least 24 hours”. Further, the “percent of tretinoin in the original admixture remaining” value was greater than 96% in series [1] (after 24 hours at 32° C., under room light) and “More than 97%” in series [1] (after 24 hours at room condition). Further, the “Assay (% label claim), 32° C., Room Light” value is 98.8 % label claim and 97.1 % label claim and 98.3 % label claim in series [1] (setting [3]); 98.5 % label claim and 97.1 % label claim in series [1] (time 1 hr); 98.6 % label claim and 98.2 % label claim in series [1] (time 4 hr); 98.9 % label claim and 97.0 % label claim in series [1] (time 12 hr); 96.6 % label claim and 97.8 % label claim in series [1] (time 24 hr). Also, the “Assay (% label claim), Room Condition” value was 98.8 % label claim and 97.1 % label claim and 98.3 % label claim in series [1] (setting [3]); 96.8 % label claim and 97.2 % label claim in series [1] (time 1 hr); 97.8 % label claim and 97.5 % label claim in series [1] (time 3 hr); 97.0 % label claim and 97.3 % label claim in series [1] (time 5 hr); 99.5 % label claim in series [1] (time 8 hr); 97.3 % label claim and 97.8 % label claim in series [1] (time 12 hr). Besides, the “Assay (% label claim), Room Condition” value in series [1] (time 24 hr) was 98.1 % label claim and 97.4 % label claim. In addition, in series [2], the “stability of tretinoin in the mixture” value was “stable”.

Source of the values: US20200297684A1, “TOPICAL COMPOSITIONS AND METHODS FOR TREATING ACNE VULGARIS” (Bausch Health Ireland Limited, priority 2019, published 2020).
